The values below come from patent US20260297070A1, “CYCLIC [COMPOUND LEFT OUT] WRN INHIBITORS” (Nimbus Wadjet, Inc., priority 2023, published 2026).

Molecules are shown by their SMILES.

This assay concerns the target T1, human Werner helicase (WRN-BV08, Uniprot Q14191, amino acids 517-1235 with L1074F point mutation) (Homo sapiens, UniProt Q14191, L1074F).
T1 construct: Uniprot Q14191, amino acids 517-1235 with L1074F point mutation; TEV-cleavable 8×His (C, cleaved yes); made in house; host or cells: Sf9 insect cells (baculovirus)
The assay can be described thus: WRN (BV08) ADP-Glo Assay. The format is biochemical. As to conditions: 0.15 nM WRN, 5 μM ATP, 0.1 nM DNA duplex, 15 min preincubation, 60 min at 25° C., pH 7.5, 1% DMSO; read-out: ADP-Glo_hWRN_IC50. In outline:
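ADP produced by WRN helicase fragment 517-1235 (L1074F, baculovirus/Sf9, untagged) read by ADP-Glo luminescence after 60 min at 25 °C with 5 μM ATP and 0.1 nM duplex DNA, following 15 min compound preincubation. Final enzyme 0.15 nM in Bicine pH 7.5 buffer, 1% DMSO; 20 μM NSC-617145 defined full inhibition.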
Background: ADP-Glo turns the ADP formed in a reaction into a luminescent signal.

T1 sequence (Q14191 with tags, fused parts or gaps L1074F limits assumed): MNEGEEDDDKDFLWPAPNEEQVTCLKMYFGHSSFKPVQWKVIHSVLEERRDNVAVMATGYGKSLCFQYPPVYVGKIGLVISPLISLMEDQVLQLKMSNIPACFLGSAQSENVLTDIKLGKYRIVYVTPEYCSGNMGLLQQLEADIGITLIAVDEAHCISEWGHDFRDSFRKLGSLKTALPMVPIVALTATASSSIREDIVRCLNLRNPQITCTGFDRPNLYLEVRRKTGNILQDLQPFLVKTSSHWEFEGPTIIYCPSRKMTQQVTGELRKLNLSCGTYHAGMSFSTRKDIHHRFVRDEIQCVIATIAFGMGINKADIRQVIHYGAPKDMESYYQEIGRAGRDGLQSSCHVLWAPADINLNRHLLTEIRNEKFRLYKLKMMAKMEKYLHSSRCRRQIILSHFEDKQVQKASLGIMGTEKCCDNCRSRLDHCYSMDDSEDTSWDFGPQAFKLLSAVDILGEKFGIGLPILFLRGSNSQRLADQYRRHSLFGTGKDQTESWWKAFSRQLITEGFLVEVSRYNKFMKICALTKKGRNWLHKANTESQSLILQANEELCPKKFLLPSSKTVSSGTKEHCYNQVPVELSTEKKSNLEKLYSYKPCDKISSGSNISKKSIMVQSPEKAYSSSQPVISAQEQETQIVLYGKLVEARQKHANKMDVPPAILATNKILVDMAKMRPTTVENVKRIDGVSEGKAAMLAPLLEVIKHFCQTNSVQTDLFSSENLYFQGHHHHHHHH

For `O=C(CCCC[C@@H]1SC[C@@H]2NC(=O)N[C@@H]21)NCCOCCOCCOCCOCCC(=O)Nc1ccc(Cn2cc(CCCC(=O)N3CCN(C(=O)c4ccc(CN(C(=O)Cc5ccc(-n6cccc6)cc5F)C5C=CS(=O)(=O)C5)cc4)CC3)nn2)nc1` (stereo partly drawn) [II-3, 1-{5-[(3aS,4S,6aR)-2-oxo-hexahydro-1H-thieno[3,4-d]imidazol-4-yl]pentanamido}-N-{6-[(4-{4-[4-(4-{[N-(1,1-dioxo-2,3-dihydro-1lambda6-thiophen-3-yl)-2-[2-fluoro-4-(1H-pyrrol-1-yl)phenyl]acetamido]methyl}benzoyl)piperazin-1-yl]-4-oxobutyl}-1H-1,2,3-triazol-1-yl)methyl]pyridin-3-yl}-3,6,9,12-tetraoxapentadecan-15-amide], the IC50 was in the range of 10 to 50 µM.

For `O=C(CCCC[C@@H]1SC[C@@H]2NC(=O)N[C@@H]21)NCCOCCOCCOCCOCCOCCOCCC(=O)N1CCN(Cc2ccc(CN(C(=O)Cc3ccc(-n4cccc4)cc3F)C3C=CS(=O)(=O)C3)cc2)CC1` (stereo partly drawn) [II-4, 5-[(3aS,4S,6aR)-2-oxo-hexahydro-1H-thieno[3,4-d]imidazol-4-yl]-N-(21-{4-[(4-{[N-(1,1-dioxo-2,3-dihydro-1lambda6-thiophen-3-yl)-2-[2-fluoro-4-(1H-pyrrol-1-yl)phenyl]acetamido]methyl}phenyl)methyl]piperazin-1-yl}-21-oxo-3,6,9,12,15,18-hexaoxahenicosan-1-yl)pentanamide], the IC50 was in the range of 10 to 50 µM.
